We go through four molecules from publication PMC10888562 (International Journal of Molecular Sciences, 2024).

“And” between values parts separate entries of the source, which are not always exact repeats. Equal entries are not always repeated.

One data set relates to H460 lung. Nature of the data set: MTT cell viability assay (GI50), H460. Particulars: for SCI: GI50 (MCF10A)/GI50 (H460); for GI50: H460 lung, MTT. The class given is cell-based, human.
A further data set deals with SJ-G2 glioblastoma. Briefly: MTT cell viability assay (GI50), SJ-G2. The class given is cell-based, human. Particulars: for SCI: GI50 (MCF10A)/GI50 (SJ-G2); for GI50: SJ-G2 glioblastoma, MTT.
Data set [1] concerns HT29 colon cells. Briefly: TMRE mitochondrial membrane potential (MtMP) assay. The format is cell-based, human. Particulars: GI50 drug concentration (FCCP 20 μM). The method, then:
This was achieved by determining if the overproduction of ROS induced by these complexes impacts mitochondrial activity by altering MtMP. Briefly, there is evidence showing a strong correlation between increased levels of ROS and mitochondrial impairment. […] The MtMP changes recorded are measured as RFU. […] To investigate the MtMP changes in HT29 treated cells, a TMRE-MtMP Assay Kit (Abcam, Cambridge, MA, USA) was used, as previously described. In 96-well plates, 25,000 cells/mL of HT29 colon cells in DMEM were seeded. Cells were treated with a GI50 drug concentration for each complex. At 24, 48 or 72 h, cells were washed with PBS and stained with tetramethylrhodamine, ethyl ester (TMRE) (1 μM) and incubated for 30 min. TMRE was then removed, and cells were then re-washed with PBS (0.2% BSA), after which phenol red free media was added. The plates were directly scanned to measure fluorescence (expressed as RFU), using the Glo-Max®-Multimode microplate reader (Promega Corporation, Alexandra, VIC, Australia) at an excitation/emission of 549/575 nm. For the positive control, 20 μM carbonyl cyanide 4-(trifluoromethoxy) phenylhydrazone (FCCP)) was added to the cells and incubated for 10 min. The cells were washed with PBS (0.2% BSA) and stained with TMRE (1 μM) for 30 min; this was removed, and phenol red free media was added, and the final solution was scanned as mentioned above.

Another data set has as its system A2780 ovarian. Briefly: MTT cell viability assay (GI50), A2780. Particulars: for SCI: GI50 (MCF10A)/GI50 (A2780); for GI50: A2780 ovarian, MTT. The class given is cell-based, human.
In data set [2] the test system is HT29 colon cells. Briefly: DCFDA cellular ROS production assay. To be noted: GI50 drug concentration (TBHP 20 μM). The format is cell-based, human. The method, then: All values are expressed as relative fluorescence units (RFU).
To evaluate the presence of ROS in treated cells, a DCFDA/H2DCFDA-cellular ROS Assay Kit (Abcam, Cambridge, MA, USA) was used, as previously described. A total of 25,000 cells/mL of HT29 cells in DMEM were seeded in 96-well plates. Cells were washed with 1X kit buffer, and then stained with 25 μM 2′,7′-dichlorofluorescein diacetate (DCFH-DA) and incubated for 45 min. DCFH-DA was then removed, and cells were then re-washed with 1X kit buffer, after which phenol red free media was added. Cells were then treated with a GI50 drug concentration for each complex. The plates were directly scanned to measure fluorescence (relative fluorescence units (RFU)) at the time points indicated the Glo-Max®-Multimode microplate reader (Promega Corporation, Alexandra, VIC, Australia) at an excitation/emission of 485/535 nm, which is directly correlated to the DCFH-DA that is deacetylated by cellular esterases and then oxidised by ROS to the fluorescent compound DCF. To generate the positive control (20 μM tert-butyl hydroperoxide (TBHP)), cells were washed with 1X kit buffer, and stained with DCFDA (25 μM) for 45 min; this was removed and TBHP was added in phenol red free media, and the resulting solution was scanned as described above.

Another data set relates to MCF-7 breast. Briefly: MTT cell viability assay (GI50), MCF-7. The format is cell-based, human. Particulars: for SCI: GI50 (MCF10A)/GI50 (MCF-7); for GI50: MCF-7 breast, MTT.
A further data set relates to MIA pancreas. Nature of the data set: MTT cell viability assay (GI50), MIA. Particulars: for SCI: GI50 (MCF10A)/GI50 (MIA); for GI50: MIA pancreas, MTT. The format is cell-based, human.
Data set [3] can be described thus: Reduction with ascorbic acid (AsA) followed by 1H-NMR and 1D-195Pt-NMR. The class given is physicochemical. To be noted: PBS, DMSO-d6, 37 °C; for Approximate Reduction Time Points T50%: time at which 50% of reduction occurs; for Approximate Reduction Time Points T100%: time at which 100% of reduction occurs. How it is done:
The biological reductant selected for this study is AsA. Briefly, sequential ^1H-NMR experiments were performed for 1 h at 37 °C, proceeded by 1D-^195Pt-NMR at 400 and −2800 ppm (30 min per region). It is noteworthy that the purity of each complex was examined prior the reduction experiments ensuring that no traces of platinum(II) species were evident in the samples used. All complexes were dissolved in PBS and DMSO-d6, without the reductant. Preliminary 1D-^195Pt-NMR measurements were conducted at 37 °C at 400 and −2800 ppm. […] Upon treatment of the platinum(IV) complexes with AsA, there was considerable reduction observed in the ^1H-NMR and 1D-^195Pt-NMR spectra acquired (Figures S31–S36). Notable changes in chemical multiplicity were recorded in the ^1H-NMR reduction spectra of P-5B3A, 5-5B3A and 56-5B3A (Figures S31, S33 and S35), especially along the aromatic region. The estimated reduction time points for P-5B3A, 5-5B3A and 56-5B3A are also outlined in Table 3.
The reduction behaviour of P-5B3A, 5-5B3A and 56-5B3A was investigated using ^1H-NMR and 1D-^195Pt-NMR spectroscopy, using previously established methods.

With `N.N.[Cl][Pt][Cl]` [Cisplatin, cis-diammineplatinum(II) dichloride], the SCI was 5.78 in the data set with H460 lung; 13.00 with SJ-G2 glioblastoma; 5.20 with A2780 ovarian; 0.80 in the data set with MCF-7 breast; 0.69 in the data set with MIA pancreas. Besides, the “MtMP Changes” value with HT29 colon cells [1] (24 h, control 542 ± 4) is on record as 232 ± 4 RFU; with HT29 colon cells [1] (48 h, control 507 ± 11), 230 ± 4 RFU; in the data set on HT29 colon cells [1] (72 h, control 449 ± 10), 192 ± 7 RFU. Besides, the “ROS Production” value with HT29 colon cells [2] (24 h, control 60 ± 3) is recorded as 265 ± 19 RFU; with HT29 colon cells [2] (48 h, control 63 ± 4), 299 ± 22 RFU; in the data set on HT29 colon cells [2] (72 h, control 85 ± 6), 364 ± 18 RFU.
As for “[Pt^IV(5,6-Me2phen)(SS-DACH)(5B3A)(OH)]^2+ [56-5B3A]”, the SCI with H460 lung is 0.42; with SJ-G2 glioblastoma, 0.03; in the data set with A2780 ovarian it was 0.18; in the data set on MCF-7 breast it was 0.05; in the data set with MIA pancreas it was 0.28. The concentration for 50% growth inhibition (GI50) with H460 lung came to 7.8 ± 2.2 nM; with SJ-G2 glioblastoma, 110 ± 20 nM; in the data set with A2780 ovarian it was 18 ± 6.1 nM; with MCF-7 breast it was 68 ± 10 nM; with MIA pancreas it was 12 ± 3 nM. Besides, in data set [3], the “Approximate Reduction Time Points T50%” value fell in the range of 0 to 5 min. For the same molecule, in data set [3], the “Approximate Reduction Time Points T100%” value is given as 10 min. Further, the “MtMP Changes” value came to 321 ± 11 RFU in the data set on HT29 colon cells [1] (24 h, control 542 ± 4); 267 ± 8 RFU with HT29 colon cells [1] (48 h, control 507 ± 11); 148 ± 7 RFU with HT29 colon cells [1] (72 h, control 449 ± 10). Further, the “ROS Production” value in the data set on HT29 colon cells [2] (24 h, control 60 ± 3) was 274 RFU and 274 ± 9 RFU; with HT29 colon cells [2] (48 h, control 63 ± 4), 418 RFU and 418 ± 15 RFU; in the data set with HT29 colon cells [2] (72 h, control 85 ± 6), 474 ± 10 RFU.
Turning to “[Pt^IV(5-Mephen)(SS-DACH)(5B3A)(OH)]^2+ [5-5B3A]”, the SCI is on record as 0.63 in the data set on H460 lung; 0.10 with SJ-G2 glioblastoma; 0.45 in the data set on A2780 ovarian; 0.10 in the data set with MCF-7 breast; 0.61 with MIA pancreas. Further, the GI50 in the data set on H460 lung stood at 30 ± 3 nM; in the data set on SJ-G2 glioblastoma it was 200 ± 40 nM; in the data set on A2780 ovarian it was 42 ± 4 nM; in the data set on MCF-7 breast, 200 ± 21 nM; with MIA pancreas it was 31 ± 3 nM. In addition, the “Approximate Reduction Time Points T50%” value in data set [3] fell in the range of 5 to 10 min. In addition, the “Approximate Reduction Time Points T100%” value in data set [3] is 30 min. In addition, the “MtMP Changes” value is on record as 324 ± 9 RFU in the data set with HT29 colon cells [1] (24 h, control 542 ± 4); 280 ± 12 RFU in the data set with HT29 colon cells [1] (48 h, control 507 ± 11); 184 ± 4 RFU with HT29 colon cells [1] (72 h, control 449 ± 10). Moreover, the “ROS Production” value was 160 RFU and 160 ± 11 RFU in the data set with HT29 colon cells [2] (24 h, control 60 ± 3); 230 RFU and 230 ± 9 RFU in the data set on HT29 colon cells [2] (48 h, control 63 ± 4); 315 RFU and 315 ± 14 RFU in the data set on HT29 colon cells [2] (72 h, control 85 ± 6).
As to “[Pt^IV(phen)(SS-DACH)(5B3A)(OH)]^2+ [P-5B3A]”, the SCI stood at 0.65 in the data set on H460 lung; 0.22 with SJ-G2 glioblastoma; 0.60 in the data set with A2780 ovarian; 0.05 in the data set on MCF-7 breast; 0.90 in the data set with MIA pancreas. Also, the concentration for 50% growth inhibition (GI50) with H460 lung amounted to 430 ± 50 nM; in the data set with SJ-G2 glioblastoma, 1300 ± 200 nM; with A2780 ovarian it was 470 ± 18 nM; in the data set on MCF-7 breast it was 5400 ± 2800 nM; with MIA pancreas, 310 ± 26 nM. For the same molecule, the “Approximate Reduction Time Points T50%” value in data set [3] is 10 to 15 min. Moreover, the “Approximate Reduction Time Points T100%” value in data set [3] stood at 60 min. Besides, the “MtMP Changes” value is 332 ± 7 RFU with HT29 colon cells [1] (24 h, control 542 ± 4); 317 ± 7 RFU with HT29 colon cells [1] (48 h, control 507 ± 11); 263 ± 5 RFU in the data set with HT29 colon cells [1] (72 h, control 449 ± 10). In addition, the “ROS Production” value in the data set with HT29 colon cells [2] (24 h, control 60 ± 3) was 156 RFU and 156 ± 16 RFU; in the data set on HT29 colon cells [2] (48 h, control 63 ± 4), 214 RFU and 214 ± 12 RFU; in the data set with HT29 colon cells [2] (72 h, control 85 ± 6) it was 246 ± 11 RFU.
